From BindingDB's records for doi:10.1021/jm0010623 (Bayer, 2001)

Experiments:
[1] = target: DNA gyrase (Escherichia coli); test: Antibacterial activity against Escherichia coli DNA gyrase
[2] = target: DNA gyrase (Micrococcus luteus); test: Antibacterial activity against Micrococcus luteus DNA gyrase.
[3] = target: DNA topoisomerase I (Escherichia coli); test: Antibacterial activity against Escherichia coli DNA topoisomerase I

IC50 [1] [nM]	IC50 [2] [nM]	IC50 [3] [nM]	Structure (SMILES)
489	326	195000	COC(=O)c1c(Br)c(OC)cc(O)c1CSC[C@H](Nc1nc(-c2ccc([N+](=O)[O-])cc2)cs1)C(=O)OC [BAY-507950]
–	62500	–	COC(=O)c1c(Br)c(OC)cc(O)c1CSC[C@@H](Nc1nc(-c2ccc([N+](=O)[O-])cc2)cs1)C1=NOCCO1
781	625	187000	COC(=O)c1c(Br)c(OC)cc(O)c1CSC[C@H](Nc1nc(-c2ccc([N+](=O)[O-])cc2)cs1)C1=NOCCO1 [BAY-507952]
157	157	188000	COC(=O)c1c(Br)c(OC)cc(O)c1CSC[C@H](Nc1nc(-c2ccc([N+](=O)[O-])cc2)cs1)c1nc(C)no1 [Ro-616653]
